From US20220151953A1, “TREATMENT OF INFLAMMATORY SKIN CONDITIONS” (Echo Pharmaceuticals B.V., priority 2019, published 2022)

Experiments:
IL-1β = assay: Inhibition of secretion of IL-1β by LPS-stimulated U937 cells (ELISA); type: cell-based
Experimental: (§1) The impact of cannabidiol, extract of Silybum marianum (fruit without pappus) and combinations of these components on the production of cytokines IL-1β and TNFα by a U937 cell line were investigated.
(§2) U937 cells, were thawed and treated according to the manufacturer's instructions. The cultures were incubated for recovery at 37° C. with 5% CO2 until 70-80% confluency was reached (visual estimation). Then, approx. 0.3×10^6¢/mL (determined by counting) were seeded in 96 well plates containing 200 μL/well of complete growth medium. The cells were incubated at 37° C. with 5% CO2 until 60% confluency was reached (visual estimation, typically—after 48 hr).
(§3) A proper blank control was subtracted from the measurements.
(§4) The cells were incubated for 24 hr. at 37° C. with 5% CO2. After the incubation, the conditioned medium of the different treatment groups was collected under standardized conditions and centrifuged at 250×g for 5 min to remove particulates. Clear supernatants were frozen at −70° C. until cytokines analyses. The secretion levels of IL-1β and TNFα (a major inflammatory marker) were quantified by commercial ELISA.

TNFα = assay: Inhibition of secretion of TNFα by LPS-stimulated U937 cells (ELISA); type: cell-based
Experimental: as §1, §2, §3, §4

prostaglandin E2 (PGE2) = assay: Secretion of PGE2 by LPS-stimulated RAW 264.7 cells; type: cell-based; details: Mus musculus, RAW264.7, LPS 12.5 ng/ml, each component present at 2.5 μg/ml
Experimental: The impact of cannabidiol, extract of Silybum marianum (fruit without pappus) and extract of Centella asiatica (leaf) on the secretion of prostaglandin E2 (PGE2) was investigated.
RAW 264.7 cells (approx. 2.5×10^5¢/ml, by counting) were seeded in 96 well plates containing 170 μl/well of complete growth medium. The cells were incubated at 37° C. with 5% CO2 for 24 hr. Then, the medium was aspirated and replaced by LPS-containing medium (12.5 ng/ml) without or with the test components. In addition, naïve cells, vehicle-treated cells, Stimulated Control, and Stimulated Vehicle Control served as negative controls. Dexamethasone served as a positive control for anti-inflammatory assay. A Blank control group was included in the assay.
The spent media from all test groups were collected under standardized conditions and centrifuged at 250 g for 5 min to remove particulates. Clear supernatants were frozen at −70° C. until analysis. The secretion levels of PGE2 (an important inflammatory marker) were determined.

human sebocytes = details: cultured human sebocytes and human skin organ culture; cited from earlier work
[1] = Homo sapiens, U-937, 1 μg/mL lipopolysaccharides, 24 hr, each component present at 10 μg/ml
[2] = LPS-stimulated, summary of Table 2

C=C(C)[C@@H]1CCC(C)=C[C@H]1c1c(O)cc(CCCCC)cc1O [Sample 1, Cannabidiol]
inhibition at 10 µg/mL (IL-1β; [1]): 28.4% | effect on secretion of IL-1β (in words) (IL-1β; [2]): attenuates secretion | inhibition at 10 µg/mL (TNFα; [1]): 48% | effect on secretion of TNFα (in words) (TNFα; [2]): attenuates secretion | inhibition at 2.5 µg/mL (prostaglandin E2 (PGE2)): 24% | effect on lipogenic actions of arachidonic acid, linoleic acid and testosterone (human sebocytes): inhibited the lipogenic actions of various compounds | effect on sebocyte proliferation (human sebocytes): suppressed sebocyte proliferation
